# Patent US8598130B2, “Insecticidal combinations” (priority 2008, dated 2013)
# System: mites
# Test: Field trial of mite control on field beans variety Paloma, foliar spray
# Assay type: in vivo
# Conditions: for Observed, % control of mites 6DAA3: 6 days after application 3, rate g/ha: abamectin 6.7, cyflumetofen 150, combination 6.7 & 150, percentage compared to non-treated control; for Observed, % control of mites 14DAA3: fourteen days after application 3, rate g/ha: abamectin 6.7, cyflumetofen 150, combination 6.7 & 150, percentage compared to non-treated control; for Observed, % control of mites 6DAA1: six days after application 1, rate g/ha: abamectin 6.7, cyflumetofen 150, combination 6.7 & 150, percentage compared to non-treated control; for Observed, % control of mites 6DAA2: six days after application 2, rate g/ha: abamectin 6.7, cyflumetofen 150, combination 6.7 & 150, percentage compared to non-treated control
# Source text: The action to be expected E for a given active ingredient combination obeys the so-called COLBY formula and can be calculated as follows (COLBY, S. R. “Calculating synergistic and antagonistic responses of herbicide combination”. Weeds, Vol. 15, pages 20-22; 1967): • ppm=milligrams of active ingredient (=a.i.) per liter of spray mixture • X=% action by active ingredient A) using p ppm of active ingredient • Y=% action by active ingredient B) using q ppm of active ingredient.
# According to COLBY, the expected (additive) action of active ingredients A)+B) using p+q ppm of active ingredient is
# If the action actually observed (O is greater than the expected action (E), then the action of the combination is super-additive, i.e. there is a synergistic effect.
# Trials are conducted on field beans variety Paloma to determine the effects of the present combination.
# The trials are carried out on a plot is 1 m^2, with three replicates for each trial and spray volume ranges from 1500-1600 l/ha.
# The first application of the pesticide formulation (whether solo or combination) is at pest threshold as foliar spray (at 35 days after planting). Thereafter the second and third foliar applications are at 42 and 49 days after planting.
# The assessment of the mite control is carried out on the basis of number of mites on five leaves for each plot at the times indicated in the table (i.e., six days after application 1 (6DAA1), six days after application 2 (6DAA2), 6 days after application 3 (6DAA3), and fourteen days after application 3 (14DAA3)). The values are given as a percentage compared to a non-treated control.
# The Table below also provides the expected % control for the combination based on the Colby formula.
Molecule,"Observed, % control of mites 6DAA3 [%]","Observed, % control of mites 14DAA3 [%]","Observed, % control of mites 6DAA1 [%]","Observed, % control of mites 6DAA2 [%]"
COCCOC(=O)C(C#N)(C(=O)c1ccccc1C(F)(F)F)c1ccc(C(C)(C)C)cc1 (centres unmarked) [cyflumetofen],26,32,79,64
abamectin,59,66,92,32
